The test system of one data set is wheat. As to the kind of experiment: Plant injury to wheat in leaf rust test. It counts as in vivo, Triticum vulgare, cv. Cheyenne. The protocol: (§1) Individual pots of approximately 20 to 25 wheat (Triticum vulgare, cv. Cheyenne) plants each, grown under greenhouse conditions, approximately 7 to 8 days old and 10.2 to 12.7 cm. tall are used as test plants, a minimum of three such pots per unit of test.
(§2) The required amount of test compound is dissolved in 10 ml. of a stock solution consisting of 1995 ml. acetone, 4 ml. sorbitan trioleate and 1 ml. polyoxyethylene (20) sorbitan monooleate and diluted to a volume of 100 ml. by addition of 90 ml. deionized water.
(§3) Test plants, three pots per unit of test, are mounted on a compound turntable and sprayed to incipient run-off with the test solution applied at 2.81 kg/cm^2 pressure for 60 seconds using a solid conte T-Jet 8801E spray nozzle. By this spray procedure the delivery rate is equivalent to approximately 467.7 l/ha.
(§4) Treated plants are allowed to air dry for 5 to 6 hours and then inoculated by uniformly dusting with urediospores of leaf rust of wheat (Puccinia recondita var. tritici) at a rate of approximately 2 × 10^5 urediospores per replicate, using urediospores directly from diseased plants. Inoculated plants are immediately placed in an incubation chamber maintained at 21° C. and 95% + RH. After 24 hours plants are removed to the greenhouse and maintained under greenhouse conditions of 21° to 29.4° C. and 50 to 75% RH for 5 to 8 days until signs of orange pustules visible to the naked eye appear on the inoculated but otherwise untreated controls.

The nature of data set [1]: Thermal decomposition point (Differential Thermal Analyzer). It counts as physicochemical. Particulars: 20° C./min, onset method; listed as Parent Compound. How it is done:
By the procedure of Examples 2 and 5 the following novel salts of 2,3,5,6-tetrachloro-N-nitroaniline are prepared as listed in Table II below. The melting points (uncorrected) of said salts are determined on a Thomas Hoover Capillary Melting Point Apparatus; while the thermal decomposition points of said salts are determined on a Dupont 900 Differential Thermal Analyzer. […] Decompositions are recorded by an exothermic response and the temperatures given in Table II below are assessed by the "onset method".

Data set [2] deals with Puccinia recondita var. tritici. As to the kind of experiment: Protectant control of leaf rust of wheat. It counts as in vivo. The protocol: as §1, §2, §3, §4
Effectiveness of the compound, as applied, is expressed as Percent Control calculated as: [formula]
Average number of pustules on plants of any given test unit is determined by randomly dividing all plants in each of the three replicates (one pot per replicate) into quadrants, counting the actual number of pustules on all plants within a quadrant in each of the three replicates, multiplying by four and averaging the total number of pustules thus obtained as the average number of pustules per replicate.

In data set [3] the test system is Podosphaera leucotricha (E&E) Salm. Briefly: whole plant or invertebrate. It is filed as in vivo. Particulars: for activity against apple powdery mildew: in vivo; for pest or weed control at 500 ppm: Podosphaera leucotricha, foliar, read-out: Apple Powdery Mildew Percent Disease Control.
Data set [4] deals with Venturia inaequalis (Cke.) Wint. As to the kind of experiment: whole plant or invertebrate. It counts as in vivo. Particulars: in vivo.
Data set [5] has as its system Pyricularia oryzae Carvara. Particulars: in vivo.
Another data set relates to crops. Particulars: in vivo; cited from earlier work.
The next data set deals with groundsel and chickweed. Particulars: in vivo; cited from earlier work.
The subject of the next data set is rice. Particulars: 1000 ppm.

On to `O=[N+]([O-])Nc1c(Cl)c(Cl)cc(Cl)c1Cl` [2,3,5,6-Tetrachloro-N-nitroaniline, 2,3,5,6-tetrachloro-N-nitroaniline], for which the “Plant Injury (Ave)” value in the data set on wheat (50 ppm), in the data set on wheat (100 ppm) and in the data set on wheat (200 ppm) was 0 throughout. The “Thermal Decomposition Point” value in [1] was 150 °C. The figures for the “% Control (Ave)” value in [2] (50 ppm), in data set [2] (100 ppm) and in [2] (200 ppm) were 35%, 58% and 69%, respectively. Further, the “No. of Infection Loci/Replicate” value in data set [2] (50 ppm, Rep. 1) is recorded as 186; in [2] (50 ppm, Rep. 2) it was 173; in data set [2] (50 ppm, Rep. 3), 199; in data set [2] (100 ppm, Rep. 1) it was 124; in [2] (100 ppm, Rep. 2), 119; in data set [2] (100 ppm, Rep. 3) it was 116. For the same compound, the “No. of Infection Loci/Replicate” value in data set [2] (200 ppm, Rep. 1) was found to be 81; in [2] (200 ppm, Rep. 2) it was 96; in [2] (200 ppm, Rep. 3), 86.

Regarding `O=[N+]([O-])Nc1cccc(Cl)c1Cl` [2,3-dichlorophenylnitramine], the “activity against apple powdery mildew” value in data set [3] was “active”. Also, the “activity against apple scab” value in data set [4] was “active”.

With `Cc1cccc(N[N+](=O)[O-])c1C` [2,3-dimethylphenylnitramine], the “activity against the rice blast pathogen” value in [5] is listed as “considerable activity”. In the case of `O=[N+]([O-])Nc1c(Br)cc(C(F)(F)F)cc1Br` [2,6-dibromo-4-trifluoromethylphenylnitramine], the “activity against apple powdery mildew” value in [3] was “active”. In addition, the “activity against apple scab” value in [4] was “active”.

Regarding `O=C(O)C1(O)c2ccccc2-c2ccc(Cl)cc21` (stereo not drawn) [2-chloro-9-fluorenol-9-carboxylic acid], in the data set with crops, the selectivity result was “very little selectivity” and the “susceptibility of most crops examined” value is “susceptible”. The weed control entry in the data set on groundsel and chickweed was “weed control is achieved”. For `O=[N+]([O-])Nc1cccc(Cl)c1C(F)(F)F` [3-chloro-2-trifluoromethyl-], the “activity against apple powdery mildew” value in [3] is listed as “active”. Still for that read-out and setting: with `O=[N+]([O-])Nc1ccc(Cl)c(C(F)(F)F)c1` [4-chloro-3-trifluoromethyl-] the entry was “active”. Take `O=[N+]([O-])Nc1ccc(C(F)(F)F)cc1` [4-trifluoromethylphenylnitramine]: in data set [5], the “activity against the rice blast pathogen” value is on record as “considerable activity”. With `CC(=O)N(c1c(Cl)c(Cl)cc(Cl)c1Cl)[N+](=O)[O-]` [N-acetyl derivative of 2,3,5,6-tetrachlorophenylnitramine], the “activity against the rice blast pathogen” value in data set [5] is given as “considerable activity”. In [3], the “activity against apple powdery mildew” value was “active”. For `Cc1cccc(N[N+](=O)[O-])c1C` [drawing 55], the “Rice Blast Percent Disease Control” value in data set [5] is reported as 81%. Still for that read-out and setting: the figure for `CC(=O)N(c1c(Cl)c(Cl)cc(Cl)c1Cl)[N+](=O)[O-]` [drawing 57] is 100%. On to `O=[N+]([O-])Nc1c(Cl)c(Cl)cc(Cl)c1Cl` [drawing 58], for which the “Rice Blast Percent Disease Control” value in data set [5] came to 83%. The phytotoxicity result in the data set with rice is on record as “M/Sv”.

As for `O=[N+]([O-])Nc1c(Cl)c(Cl)cc(Cl)c1Cl` [drawing 59], the “Rice Blast Percent Disease Control” value in data set [5] is on record as 83%. In addition, the phytotoxicity result in the data set with rice was “M/Sv”. For the compound `O=[N+]([O-])Nc1c(Cl)c(Cl)cc(Cl)c1Cl` [drawing 60], the “Rice Blast Percent Disease Control” value in [5] worked out at 83%.

On to `O=[N+]([O-])Nc1c(Cl)c(Cl)cc(Cl)c1Cl` [drawing 61], for which, in data set [5], the “Rice Blast Percent Disease Control” value amounted to 83%. Turning to `O=[N+]([O-])Nc1c(Cl)c(Cl)cc(Cl)c1Cl` [drawing 62], in data set [5], the “Rice Blast Percent Disease Control” value came out at 69%. Take `O=[N+]([O-])Nc1cccc(Cl)c1Cl` [drawing 74]: the pest or weed control at 500 ppm in data set [3] is 96%.

For `O=[N+]([O-])Nc1c(Cl)cccc1Cl` [drawing 75], the pest or weed control at 500 ppm in [3] amounted to 84%.

For `O=[N+]([O-])Nc1cccc(Br)c1` [drawing 77], in data set [3], the pest or weed control at 500 ppm turned out to be 84%.

As to `Cc1cc([N+](=O)[O-])cc(C)c1N[N+](=O)[O-]` [drawing 78], the pest or weed control at 500 ppm in [3] is 84%. Regarding `O=[N+]([O-])Nc1c(Br)cc(C(F)(F)F)cc1Br` [drawing 79], the pest or weed control at 500 ppm in data set [3] was 84%.

For the compound `O=[N+]([O-])Nc1ccc(Cl)c(C(F)(F)F)c1` [drawing 80], in [3], the pest or weed control at 500 ppm came out at 84%. As for `CC(=O)N(c1c(Cl)c(Cl)cc(Cl)c1Cl)[N+](=O)[O-]` [drawing 83], the pest or weed control at 500 ppm in [3] came to 92%.

The record behind these values is patent US4130645A (priority 1978, dated 1978).
